Measurements from patent publication US11939340B2, “CDK inhibitors and their use as pharmaceuticals” (Prelude Therapeutics Incorporated, priority 2022, dated 2024).
pIC50: −log10 of the molar value.

What was measured:
CDK4/Cyclin D1 = target: T1, CDK4/Cyclin D1 (Homo sapiens, UniProt P11802); experiment: CDK4/CyclinD1 Enzymatic Activity Assay (TR-FRET); format: biochemical; conditions: CDK4/CyclinD1 1 nM, ATP 2 mM, read-out: CDK4_D1 IC50
T1 construct: purchased ProQinase; host or cells: insect cell
T1 sequence (P11802 whole entry): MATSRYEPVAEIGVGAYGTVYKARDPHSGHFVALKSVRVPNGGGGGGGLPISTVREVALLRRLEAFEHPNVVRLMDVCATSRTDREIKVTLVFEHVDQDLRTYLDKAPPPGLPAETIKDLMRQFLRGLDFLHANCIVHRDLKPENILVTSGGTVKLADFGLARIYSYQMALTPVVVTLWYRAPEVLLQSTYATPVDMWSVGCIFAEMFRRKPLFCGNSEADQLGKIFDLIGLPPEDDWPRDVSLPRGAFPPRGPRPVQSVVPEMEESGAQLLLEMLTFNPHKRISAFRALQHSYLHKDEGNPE
T1 sequence (P24385 whole entry partner): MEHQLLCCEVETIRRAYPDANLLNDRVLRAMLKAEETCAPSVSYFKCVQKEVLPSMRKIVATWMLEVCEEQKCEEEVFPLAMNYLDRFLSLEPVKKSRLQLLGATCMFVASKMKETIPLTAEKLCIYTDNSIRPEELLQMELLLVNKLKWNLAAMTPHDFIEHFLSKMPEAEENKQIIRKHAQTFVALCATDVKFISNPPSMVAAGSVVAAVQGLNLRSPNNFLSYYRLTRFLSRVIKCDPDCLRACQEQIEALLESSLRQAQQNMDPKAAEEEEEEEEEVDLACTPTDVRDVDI
Procedure: CDK4/CyclinD1 Enzymatic Activity Assay
The inhibitory activity of compounds was evaluated in vitro using TR-FRET assay with white 384-well low volume microplate (Greiner Bio-One). CDK4/Cyclin D1 catalyzed phosphorylation of peptide in the presence and absence of compounds was measured and used in IC50 determination. Recombinant protein complex CDK4/Cyclin D1, expressed from insect cell, was purchased from ProQinase. Testing compounds were dissolved in DMSO at 1 mM and tested in 9-dose IC50 mode. The reaction mixture was prepared by mixing CDK4/CyclinD1 (1 nM final), ULight-4E-BP1 (100 nM final, Perkinelmer, TRF0128-D), and ATP (2 mM final) in assay buffer (20 mM of HEPES pH 7.4, 1 mM of EGTA, 0.05% BSA, 0.005% Tween 20, and 1 mM TCEP). The compound of interest in DMSO was added to each well in 3-fold serial dilution by the dispenser (TECAN D300E) to make a 9.9 μL of reaction mixture. After 20 minutes preincubation at room temperature, 0.1 μL MgCl2 (10 mM final) was added to initiate the reaction. Following a 45 minute incubation at 37° C., the reaction was stopped by addition of 2 μL of quenching buffer consisting of Lance detection buffer (Perkinelmer CR97-100C), LANCE Ultra Europium-anti-P-4E-BP1 (Perkinelmer, TRF0216-D), EDTA, and incubated at room temperature for additional 60 minutes in dark. The reaction signal was measured by Envision multimode plate reader (PerkinElmer, 2102-0010). IC50 values were determined by fitting the data to the standard 4 parameters with Hill Slope using GraphPad Prism software.

CDK2/Cyclin E2 = CDK2/Cyclin E2 (Homo sapiens, UniProt P24941); experiment: CDK2/CyclinE2 Enzymatic Activity Assay (TR-FRET); format: biochemical; conditions: CDK2/CyclinE2 1 nM, ATP 1 mM, read-out: CDK2_El IC50
Procedure: CDK2/CyclinE2 Enzymatic Activity Assay
The inhibitory activity of compounds was evaluated in vitro using TR-FRET assay with white 384-well low volume microplate (Greiner Bio-One). CDK2/Cyclin E2 catalyzed phosphorylation of peptide in the presence and absence of compounds was measured and used in IC50 determination. Recombinant protein complex CDK2/Cyclin E2, expressed from insect cell, was purchased from ProQinase. Testing compounds were dissolved in DMSO at 1 mM and tested in 9-dose IC50 mode. The reaction mixture was prepared by mixing CDK2/CyclinE2 (1 nM final), ULight-4E-BP1 (50 nM final, Perkinelmer, TRF0128-D), and ATP (1 mM final) in assay buffer (20 mM of HEPES pH 7.4, 1 mM of EGTA, 0.05% BSA, 0.005% Tween 20, and 1 mM TCEP). The compound of interest in DMSO was added to each well in 3-fold serial dilution by dispenser (TECAN D300E) to make a 9.9 μL of reaction mixture. After 20 minutes preincubation at room temperature, 0.1 μL MgCl2 (10 mM final) was added to initiate the reaction. Following a 45 minute incubation at 37° C., the reaction was stopped by addition of 2 μL of quenching buffer consisting of Lance detection buffer (Perkinelmer CR97-100C), LANCE Ultra Europium-anti-P-4E-BP1 (Perkinelmer, TRF0216-D), EDTA, and incubate at room temperature for additional 60 minutes in the dark. The reaction signal was measured by Envision multimode plate reader (PerkinElmer, 2102-0010). IC50 values were determined by fitting the data to the standard 4 parameters with Hill Slope using GraphPad Prism software.

pRB in OVCAR3 cells = experiment: pRB ICW Assay in OVCAR3 Cells; format: cell-based; conditions: Homo sapiens, OVCAR-3, incubated with compound for 2 hours, read-out: OVCAR3 p-RB ICW IC50
Procedure: pRB ICW Assay in OVCAR3 Cells
OVCAR3 cells were maintained in RPMI (Corning, Catalog #: 10-040-CV) supplemented with 10% v/v FBS (Gibco, Catalog #: 26140-079), 1% v/v Penicillin Streptomycin (Gibco, Catalog #15140-122.) OVCAR3 cells grown at log phase were trypsinized, counted, and resuspended in fresh medium to reach a final density of 6.7e4 cells/mL and 75 μL of culture were dispensed into a 384-well plate (Falcon, cat #353962) using a Multidrop Combi dispenser (Thermo Scientific). The next day, compounds were dispensed as a 9-point, ½ log serial dilution using a Tecan digital dispenser (D300e), and cells were incubated with compound for 2 hours in a humidified incubator at 37° C. A reference compound at a final concentration of 10 μM was used as a control for maximum inhibition. Each compound was tested in duplicates for each experiment. At the end of the incubation, 25 μL of 16% paraformaldehyde (Electron Microscopy, cat #15710) was slowly added to each well and the plate was incubated at room temperature (RT) for 30 minutes to fix cells. Cells were then permeabilized by incubating with 50 μL/well of wash buffer (lx PBS with 0.1% Triton X-100) 5×5 minutes, followed by 1 hour blocking with 30 μL/well of Odyssey blocking buffer (Li—COR, cat #927-40000), at RT. Anti-phosphor RB antibody (Cell signaling 8516S) was diluted 1:1000 in Odyssey blocking buffer and 20 μL was added to all wells and incubated overnight in 4° C. with gently rocking. The next day, cells were washed 5×5 min with 50 μL/well of wash buffer, followed with 1 hour incubation with secondary antibody and DRAQ5 diluted in Odyssey blocking buffer (1:500 dilution for secondary antibody and 1:2000 dilution for DRAQ5), 5×5 min washes, and one last wash with water. Plates were dried in 37° C. oven for 5 minutes and scanned using Li—COR Odyssey CLx imaging system to acquire intensities at 700 and 800 nm channels.

Structure (SMILES) | pIC50 (CDK4/Cyclin D1) | pIC50 (CDK2/Cyclin E2) | pIC50 (pRB in OVCAR3 cells)
CC(C)C12CCOCCN1C(=O)c1cc(-c3nc(NC4CCN(S(C)(=O)=O)CC4)ncc3C(F)(F)F)sc12 (stereo not drawn) [Example 10, 10a-Isopropyl-2-(2-((1-(methylsulfonyl)piperidin-4-yl)amino)-5-(trifluoro-methyl)pyrimidin-4-yl)-6,7,10,10a-tetrahydrothieno[2′,3′:3,4]pyrrolo[1,2-d][1,4]oxazepin-4(9H)-one] | ≥ 7.00 | ≥ 7.00 | 6.30 to 7.00
CS(=O)(=O)N1CCC(Nc2ncc(C(F)(F)F)c(-c3cc4c(s3)C3(CF)CCCN3C4=O)n2)CC1 (stereo not drawn) [Example 18, 8a-(Fluoromethyl)-2-(2-((1-(methylsulfonyl)piperidin-4-yl)amino)-5-(trifluoromethyl)pyrimidin-4-yl)-6,7,8,8a-tetrahydro-4H-thieno[2,3-a]pyrrolizin-4-one] | ≥ 7.00 | ≥ 7.00 | 6.30 to 7.00
CCC12CCCN1C(=O)c1cc(-c3nc(NC4CCN(S(C)(=O)=O)CC4)ncc3Cl)sc12 (stereo not drawn) [Example 27, 2-(5-Chloro-2-((1-(methylsulfonyl)piperidin-4-yl)amino)pyrimidin-4-yl)-8a-ethyl-6,7,8,8a-tetrahydro-4H-thieno[2,3-a]pyrrolizin-4-one] | ≥ 7.00 | ≥ 7.00 | ≥ 7.00
CC(C)C12CCCN1C(=O)c1cc(-c3nc(NC4CCN(S(C)(=O)=O)CC4)ncc3C(F)(F)F)sc12 (stereo not drawn) [Example 11, 8a-Isopropyl-2-(2-((1-(methylsulfonyl)piperidin-4-yl)amino)-5-(trifluoro-methyl)pyrimidin-4-yl)-6,7,8,8a-tetrahydro-4H-thieno[2,3-a]pyrrolizin-4-one] | ≥ 7.00 | ≥ 7.00 | 6.30 to 7.00

The next lines start with the values.

pIC50 (CDK4/Cyclin D1) | pIC50 (CDK2/Cyclin E2) | pIC50 (pRB in OVCAR3 cells) | Structure (SMILES)
≥ 7.00 | ≥ 7.00 | ≥ 7.00 | CCC12CCCN1C(=O)c1cc(-c3nc(NC4CCN(S(C)(=O)=O)CC4)ncc3F)sc12 (stereo not drawn) [Example 15, 8a-Ethyl-2-[5-fluoro-2-[(1-methylsulfonylpiperidin-4-yl)amino]pyrimidin-4-yl]-7,8-dihydro-6H-thieno[2,3-a]pyrrolizin-4-one]
≥ 7.00 | ≥ 7.00 | ≥ 7.00 | CCC12CC(N)CN1C(=O)c1cc(-c3nc(N[C@H]4CCN(S(=O)(=O)c5cnn(C)c5)C[C@H]4C)ncc3C(F)(F)F)sc12 (stereo partly drawn) [Example 46, 7-Amino-8a-ethyl-2-(2-(((3R,4S)-3-methyl-1-((1-methyl-1H-pyrazol-4-yl)sulfonyl)piperidin-4-yl)amino)-5-(trifluoromethyl)pyrimidin-4-yl)-6,7,8,8a-tetrahydro-4H-thieno[2,3-a]pyrrolizin-4-one]
≥ 7.00 | ≥ 7.00 | ≥ 7.00 | CCC12CC(NC)CN1C(=O)c1cc(-c3nc(N[C@@H]4CCN(S(C)(=O)=O)C[C@H]4F)ncc3C(F)(F)F)sc12 (stereo partly drawn) [Example 47, 8a-Ethyl-2-(2-(((3R,4R)-3-fluoro-1-(methylsulfonyl)piperidin-4-yl)amino)-5-(trifluoromethyl)pyrimidin-4-yl)-7-(methylamino)-6,7,8,8a-tetrahydro-4H-thieno[2,3-a]pyrrolizin-4-one]
≥ 7.00 | ≥ 7.00 | ≥ 7.00 | CS(=O)(=O)N1CCC(Nc2ncc(C(F)(F)F)c(-c3cc4c(s3)C3(C5CC5)CCCN3C4=O)n2)CC1 (stereo not drawn) [Example 22, 8a-Cyclopropyl-2-(2-((1-(methylsulfonyl)piperidin-4-yl)amino)-5-(trifluoromethyl)pyrimidin-4-yl)-6,7,8,8a-tetrahydro-4H-thieno[2,3-a]pyrrolizin-4-one]
≥ 7.00 | ≥ 7.00 | ≥ 7.00 | CCC12CC(C)(O)CN1C(=O)c1cc(-c3nc(NC4CCN(S(C)(=O)=O)CC4)ncc3C(F)(F)F)sc12 (stereo not drawn) [Example 34, 8a-Ethyl-7-hydroxy-7-methyl-2-(2-((1-(methylsulfonyl)piperidin-4-yl)amino)-5-(trifluoromethyl)pyrimidin-4-yl)-6,7,8,8a-tetrahydro-4H-thieno[2,3-a]pyrrolizin-4-one]
